Source: patent US8633246B2, “Omega-3 fatty acids for osteoarthritis” (Hill's Pet Nutrition, Inc., priority 2003, dated 2014)

Tests used:
Assay type in all cases: cell-based, dog
[1] = test system: canine articular cartilage explants; assay: Glycosaminoglycan (GAG) release from cultured canine cartilage explants
Experimental: This example illustrates the release of glycosaminoglycan elicited by omega-3 fatty acids in cultured canine cartilage tissue.
Articular cartilage was obtained from left and right stifles (both femoral condyles and tibial plateau) of dogs. Cartilage explants cultured for 3 days in medium with 10% fetal bovine serum, then washed 3 times in serum free medium. Explants then cultured for 6 days in serum free medium containing 0, 100 or 300 μg/ml n3 fatty acid (EPA, ALA or DHA). After this period in fatty acid medium, all explants were washed 3 times in fatty acid free/serum free medium. Explants were then cultured individually for 4 days in 1 ml of fatty acid and serum free medium containing no additives (C), 10^−6M retinoic acid (RA) or 50 ng/ml oncostatin M (OSM). Note that not all treatments were possible on all dogs because of cartilage availability. The release of proteoglycan into the medium (μg/mg wet weight) was measured at the termination of culture. In the tables below, the mean and standard deviation of glycosaminoglycan (GAG) release for the triplicate cultures for each of the 4 dogs are given. In addition, the media lactate (μg/mg wet weight) concentrations were given for each treatment.

canine cartilage [2] = assay: Proteoglycan synthesis, 35SO4 incorporation into cartilage matrix; conditions: no catabolic stimuli
Experimental: (§1) To assess the potential effect of n-3 fatty acids on protein and proteoglycan metabolism in canine cartilage, cultures were set up as described in Example 1 except for the final 4 days of culture, no catabolic stimuli were added (i.e., all “control” cultures). During the final 24 hours of culture (1) ^35SO4, or (ii) ^35S-methionine and ^35S-cysteine, were added to the medium to radiolabel newly synthesized proteoglycans and proteins, respectively. The incorporation of radiolabel into the cartilage matrix was measured at the termination of culture. No attempt was made to quantitate loss of radiolabelled material from the cartilage over the 24-hour labeling period. The mean and standard deviation of the incorporation of ^35SO4 (“PG”) or ^35S-methionine and ^35S-cysteine (“PROT”) as DPM/mg wet weight are shown in Table 5 below, […]

canine cartilage [3] = assay: Protein synthesis, 35S-methionine and 35S-cysteine incorporation into cartilage matrix; conditions: no catabolic stimuli
Experimental: as §1

CC/C=C\C/C=C\C/C=C\CCCCCCCC(=O)O [ALA, alpha-linolenic acid]
GAG Mean ([1]; Dog 2, C, 100 μg/ml): 1.12 μg/mg wet weight | GAG Mean ([1]; Dog 2, C, 300 μg/ml): .993 μg/mg wet weight | change in GAG release ([1]; Dog 2, OSM treated cultures): not ALA or DHA significantly decreased | GAG Mean ([1]; Dog 2, OSM, 100 μg/ml): 8.497 μg/mg wet weight | GAG Mean ([1]; Dog 2, OSM, 300 μg/ml): 6.42 μg/mg wet weight | GAG Mean ([1]; Dog 3, C, 100 μg/ml): 2.117 μg/mg wet weight | GAG Mean ([1]; Dog 3, C, 300 μg/ml): 2.447 μg/mg wet weight | GAG Mean ([1]; Dog 3, OSM, 100 μg/ml): 22.033 μg/mg wet weight | GAG Mean ([1]; Dog 3, OSM, 300 μg/ml): 23.467 μg/mg wet weight | GAG Mean ([1]; Dog 3, RA, 100 μg/ml): 20.44 μg/mg wet weight | GAG Mean ([1]; Dog 3, RA, 300 μg/ml): 24.467 μg/mg wet weight | GAG Mean ([1]; Dog 4, C, 100 μg/ml): 2.103 μg/mg wet weight | GAG Mean ([1]; Dog 4, C, 300 μg/ml): 1.533 μg/mg wet weight | GAG Mean ([1]; Dog 4, OSM, 100 μg/ml): 11.7 μg/mg wet weight | GAG Mean ([1]; Dog 4, OSM, 300 μg/ml): 19.557 μg/mg wet weight | GAG Mean ([1]; Dog 4, RA, 100 μg/ml): 12.547 μg/mg wet weight | GAG Mean ([1]; Dog 4, RA, 300 μg/ml): 14.093 μg/mg wet weight | PG Mean (incorporation of 35SO4) (canine cartilage [2]; 100 μg/ml): 246.333 DPM/mg wet weight | PG Mean (incorporation of 35SO4) (canine cartilage [2]; 300 μg/ml): 443.0 DPM/mg wet weight | PROT Mean (incorporation of 35S-methionine and 35S-cysteine) (canine cartilage [3]; 100 μg/ml): 503.667 DPM/mg wet weight | PROT Mean (incorporation of 35S-methionine and 35S-cysteine) (canine cartilage [3]; 300 μg/ml): 393.667 DPM/mg wet weight

CC/C=C\C/C=C\C/C=C\C/C=C\C/C=C\C/C=C\CCC(=O)O [DHA, Docosahexaenoic acid]
GAG Mean ([1]; Dog 2, C, 100 μg/ml): .640 μg/mg wet weight | GAG Mean ([1]; Dog 2, C, 300 μg/ml): .843 μg/mg wet weight | GAG Mean ([1]; Dog 2, OSM, 100 μg/ml): 8.567 μg/mg wet weight | GAG Mean ([1]; Dog 2, OSM, 300 μg/ml): 6.073 μg/mg wet weight | GAG Mean ([1]; Dog 3, C, 100 μg/ml): 1.903 μg/mg wet weight | GAG Mean ([1]; Dog 3, C, 300 μg/ml): 1.55 μg/mg wet weight | GAG Mean ([1]; Dog 3, OSM, 100 μg/ml): 11.667 μg/mg wet weight | GAG Mean ([1]; Dog 3, OSM, 300 μg/ml): 11.630 μg/mg wet weight | GAG Mean ([1]; Dog 3, RA, 100 μg/ml): 21.093 μg/mg wet weight | GAG Mean ([1]; Dog 3, RA, 300 μg/ml): 19.457 μg/mg wet weight | GAG Mean ([1]; Dog 4, C, 100 μg/ml): 2.343 μg/mg wet weight | GAG Mean ([1]; Dog 4, C, 300 μg/ml): 2.307 μg/mg wet weight | GAG Mean ([1]; Dog 4, OSM, 100 μg/ml): 24.967 μg/mg wet weight | GAG Mean ([1]; Dog 4, OSM, 300 μg/ml): 16.4 μg/mg wet weight | GAG Mean ([1]; Dog 4, RA, 100 μg/ml): 11.28 μg/mg wet weight | GAG Mean ([1]; Dog 4, RA, 300 μg/ml): 11.3 μg/mg wet weight | PG Mean (incorporation of 35SO4) (canine cartilage [2]; 100 μg/ml): 156.0 DPM/mg wet weight | PG Mean (incorporation of 35SO4) (canine cartilage [2]; 300 μg/ml): 123.333 DPM/mg wet weight | PROT Mean (incorporation of 35S-methionine and 35S-cysteine) (canine cartilage [3]; 100 μg/ml): 503.667 DPM/mg wet weight | PROT Mean (incorporation of 35S-methionine and 35S-cysteine) (canine cartilage [3]; 300 μg/ml): 564.333 DPM/mg wet weight

CC/C=C\C/C=C\C/C=C\C/C=C\C/C=C\CCCC(=O)O [EPA, Eicosapentaenoic acid]
GAG Mean ([1]; Dog 1, C (no additives), 100 μg/ml): 1.590 μg/mg wet weight | GAG Mean ([1]; Dog 1, C (no additives), 300 μg/ml): 1.036 μg/mg wet weight | GAG Mean ([1]; Dog 1, OSM (50 ng/ml oncostatin M), 100 μg/ml): 6.293 μg/mg wet weight | GAG Mean ([1]; Dog 1, OSM, 300 μg/ml): 2.167 μg/mg wet weight | GAG Mean ([1]; Dog 1, RA (10^−6M retinoic acid), 100 μg/ml): 8.677 μg/mg wet weight | GAG Mean ([1]; Dog 1, RA, 300 μg/ml): 1.593 μg/mg wet weight | GAG Mean ([1]; Dog 2, C, 100 μg/ml): .340 μg/mg wet weight | GAG Mean ([1]; Dog 2, C, 300 μg/ml): .573 μg/mg wet weight | GAG Mean ([1]; Dog 2, OSM, 100 μg/ml): 5.25 μg/mg wet weight | GAG Mean ([1]; Dog 2, OSM, 300 μg/ml): 2.83 μg/mg wet weight | GAG Mean ([1]; Dog 3, C, 100 μg/ml): 1.673 μg/mg wet weight | GAG Mean ([1]; Dog 3, C, 300 μg/ml): 1.567 μg/mg wet weight | GAG Mean ([1]; Dog 3, OSM, 100 μg/ml): 17.85 μg/mg wet weight | GAG Mean ([1]; Dog 3, OSM, 300 μg/ml): 8.1 μg/mg wet weight | GAG Mean ([1]; Dog 3, RA, 100 μg/ml): 16.223 μg/mg wet weight | GAG Mean ([1]; Dog 3, RA, 300 μg/ml): 1.537 μg/mg wet weight | GAG Mean ([1]; Dog 4, C, 100 μg/ml): 2.687 μg/mg wet weight | GAG Mean ([1]; Dog 4, C, 300 μg/ml): 2.1 μg/mg wet weight | GAG Mean ([1]; Dog 4, OSM, 100 μg/ml): 15.883 μg/mg wet weight | GAG Mean ([1]; Dog 4, OSM, 300 μg/ml): 13.493 μg/mg wet weight | GAG Mean ([1]; Dog 4, RA, 100 μg/ml): 14.393 μg/mg wet weight | GAG Mean ([1]; Dog 4, RA, 300 μg/ml): 9.093 μg/mg wet weight | PG Mean (incorporation of 35SO4) (canine cartilage [2]; 100 μg/ml): 537.333 DPM/mg wet weight | PG Mean (incorporation of 35SO4) (canine cartilage [2]; 300 μg/ml): 275.667 DPM/mg wet weight | PROT Mean (incorporation of 35S-methionine and 35S-cysteine) (canine cartilage [3]; 100 μg/ml): 442.0 DPM/mg wet weight | PROT Mean (incorporation of 35S-methionine and 35S-cysteine) (canine cartilage [3]; 300 μg/ml): 504.0 DPM/mg wet weight
